Assays:
[1] = molecular target: Pasteurella multocida PmST1 double mutant E271F/R313Y of SEQ ID NO: 13 (E247F/R289Y of Δ24PmST1, SEQ ID NO: 11) (Pasteurella multocida, UniProt Q15KI8, E271F/R313Y); experiment: α2-3-sialidase activity, Neu5Acα2-3LacβMU as substrate; format: biochemical; settings: apparent, MES pH 5.5, 37° C., 20 min
Method: (§1) Site-directed mutagenesis. Site-directed mutagenesis was carried out using the QuikChange multi-site-directed mutagenesis kit from Stratagene according to the manufacturer's protocol. The primers used were 5′-[…] -3′ (SEQ ID NO:32) for E271F and 5′-[…]-3′ (SEQ ID NO:33) for R313Y. The sites of mutations are underlined.
(§2) Protein Expression and Purification. The plasmids containing the mutant genes were transformed into E. coli BL21 (DE3). The E. coli cells were cultured in LB-rich media (10 g L^−1 tryptone, 5 g L^−1 yeast extract, and 10 g L^−1 NaCl) supplemented with ampicillin (100 μg mL^−1). Overexpression of the mutant proteins was achieved by adding 0.1 mM of isopropyl-1-thio-β-D-galactopyranoside (IPTG) to the E. coli culture when its OD600 nm reached 0.8. The incubation of the induced culture was performed at 37° C. for 3 h with vigorous shaking at 250 rpm in a C25KC incubator shaker (New Brunswick Scientific, Edison, N.J.).
(§3) His6 (SEQ ID NO:34) tagged mutant proteins were purified from the cell lysate. To obtain the cell lysate, the cell pellet harvested by centrifugation at 4000 rpm for 2 h was resuspended in 20 mL (for cells obtained from one liter culture) of lysis buffer (pH 8.0, 100 mM Tris-HCl containing 0.1% Triton X-100). To lyse the cells, lysozyme (50 μg mL^−1) and DNaseI (3 μg mL^−1) were then added to the resuspended cells followed by shaking at 37° C. for 60 min. The cell lysate was obtained as the supernatant after centrifugation at 11,000 rpm for 20 min. […]
(§4) All the sialidase and α2-3-sialyltransferase assays were performed in an HPLC system. […] After necessary dilutions were performed to adjust the concentrations of the fluorescent-labeled compounds, the samples were then kept on ice until aliquots of 8 μL were injected and analyzed by a Shimadzu LC-6AD system equipped with a membrane on-line degasser, a temperature control unit, and a fluorescence detector (Shimadzu RF-10AXL). […] The fluorescent compounds LacβMU and Neu5Acα2-3LacβMU were detected by excitation at 325 nm and emission at 372 nm.

[2] = molecular target: Pasteurella multocida PmST1 mutant E271F of SEQ ID NO: 13 (E247F of Δ24PmST1, SEQ ID NO: 7) (Pasteurella multocida, UniProt Q15KI8, E271F); experiment: as above; format: biochemical; settings: apparent, MES pH 5.5, 37° C., 1 min
Method: as §1, §2, §3, §4

[3] = molecular target: Pasteurella multocida PmST1 mutant R313Y of SEQ ID NO: 13 (R289Y of Δ24PmST1, SEQ ID NO: 9) (Pasteurella multocida, UniProt Q15KI8, R313Y); experiment: as above; format: biochemical; settings: apparent, MES pH 5.5, 37° C., 25 min
Method: as §1, §2, §3, §4

[4] = molecular target: Pasteurella multocida PmST1 mutant M144D of SEQ ID NO: 13 (M120D of Δ24PmST1, SEQ ID NO: 3) (Pasteurella multocida, UniProt Q15KI8, M144D); experiment: as above; format: biochemical; settings: apparent, MES pH 5.5, 37° C., 60 min
Method: (§5) Site-directed mutagenesis, expression and purification of PmST1 mutants. Site-directed mutagenesis was performed using the QuikChange multi-site-directed mutagenesis kit from Stratagene according to the manufacturer's protocol. The primers used were 5′-[…]-3′ (SEQ ID NO:35) for M144D; 5′-[…]a[…] -3′ (SEQ ID NO:36) for M144H; 5′-[…]-3′ (SEQ ID NO:37) for A35D; and 5′-[…]-3′ (SEQ ID NO:38) for A35H. The expression and purification of the mutants were performed as previously described for the WT PmST1 .
(§6) Kinetics of the α2-3-sialidase activity of PmST1 mutants. The reactions were performed in duplicate in a total volume of 10 μL at 37° C. for 60 min (M144D) or 15 min (M144H) in MES buffer (100 mM, pH 5.5) containing Neu5Acα2-3LacβMU (0.4, 1, 2, 4, 10, 20, 40 and 60 mM) and an enzyme (M144H, 1.36 mg mL^−1 or M144D, 1.05 mg mL^−1). Sample treatment after the reaction and analysis were carried out by HPLC similar to that described above for the α2-3-sialyltransferase assays.

[5] = molecular target: Pasteurella multocida PmST1 mutant M144H of SEQ ID NO: 13 (M120H of Δ24PmST1, SEQ ID NO: 5) (Pasteurella multocida, UniProt Q15KI8, M144H); experiment: as above; format: biochemical; settings: apparent, MES pH 5.5, 37° C., 15 min
Method: as §5, §6

[6] = molecular target: Pasteurella multocida α2-3-sialyltransferase 1 (PmST1), wild type (WT), SEQ ID NO: 13 (Pasteurella multocida, UniProt Q15KI8); settings: apparent, α2-3-sialidase; cited from earlier work
[7] = molecular target: Pasteurella multocida PmST1 mutant D141A (Pasteurella multocida, UniProt Q15KI8, D141A); experiment: α2-3-sialidase activity, Neu5Acα2-3LacβMU as substrate; format: biochemical; parameters: previously obtained mutant (Ni et al. 2006); settings: apparent, MES pH 5.5, 37° C., 60 min
Method: (§7) Kinetic Assays. […] The apparent kinetic parameters were obtained by fitting the experimental data (the average values of duplicate assay results) into the Michaelis-Menten equation using Grafit 5.0.
(§8) All the sialidase and α2-3-sialyltransferase assays were performed in an HPLC system. Reactions were stopped by adding 10 μL of ethanol. After necessary dilutions were performed to adjust the concentrations of the fluorescent-labeled compounds, the samples were then kept on ice until aliquots of 8 μL were injected and analyzed by a Shimadzu LC-6AD system equipped with a membrane on-line degasser, a temperature control unit, and a fluorescence detector (Shimadzu RF-10AXL). A reverse-phase Premier C18 column (250×4.6 mm i.d., 5 μm particle size, Shimadzu) protected with a C18 guard column cartridge was used. The mobile phase was 25% acetonitrile. The fluorescent compounds LacβMU and Neu5Acα2-3LacβMU were detected by excitation at 325 nm and emission at 372 nm.

[8] = molecular target: Pasteurella multocida PmST1 mutant H311A (Pasteurella multocida, UniProt Q15KI8, H311A); experiment: as above; format: biochemical; parameters: previously obtained mutant (Ni et al. 2006); settings: result in words
Method: as §7, §8

## CC(=O)N[C@H]1[C@H]([C@H](O)[C@H](O)CO)O[C@@](O[C@H]2[C@@H](O)[C@@H](CO)O[C@@H](O[C@H]3[C@H](O)[C@@H](O)[C@H](Oc4ccc5c(C)cc(=O)oc5c4)O[C@@H]3CO)[C@@H]2O)(C(=O)O)C[C@@H]1O [Neu5Acα2-3LacβMU]
[1]
  kcat: 0.83 ± 0.08 s⁻¹
[2]
  kcat: 0.92 ± 0.04 s⁻¹
[3]
  kcat: 0.18 ± 0.01 s⁻¹
[4]
  kcat: (3.5 ± 0.1) × 10^−2 s^−1
[5]
  kcat: (2.7 ± 0.2) × 10^−2 s^−1
[6]
  Km: 24 mM
[7]
  kcat: (1.9 ± 0.1) × 10^−2 s^−1
[8]
  kinetics of the α2-3-sialidase activity: too low to obtain the kinetic data

From patent US9255257B2, “PmST1 mutants for chemoenzymatic synthesis of sialyl lewis X compounds” (THE REGENTS OF THE UNIVERSITY OF CALIFORNIA, priority 2011, dated 2016)
